Data set [1] deals with T1, CYP 2D6 (Homo sapiens, UniProt P10635).
The subject of data set [2] is QTc interval of the ECG. Nature of the data set: Cardiac side effects: QTc interval of the ECG in anesthetized guinea pigs. As to conditions: for Prolongation of the QTc interval of the ECG (in words): intravenous infusion; for ΔQTc (%): intravenous infusion over 30 min.
Data set [3] has as its target T2, human recombinant muscarinic receptor M-1 (Homo sapiens, UniProt P11229).
T2 construct: expressed in transfected cells; host or cells: SF9 insect cells (membranes)
T2 sequence (P11229 1-460): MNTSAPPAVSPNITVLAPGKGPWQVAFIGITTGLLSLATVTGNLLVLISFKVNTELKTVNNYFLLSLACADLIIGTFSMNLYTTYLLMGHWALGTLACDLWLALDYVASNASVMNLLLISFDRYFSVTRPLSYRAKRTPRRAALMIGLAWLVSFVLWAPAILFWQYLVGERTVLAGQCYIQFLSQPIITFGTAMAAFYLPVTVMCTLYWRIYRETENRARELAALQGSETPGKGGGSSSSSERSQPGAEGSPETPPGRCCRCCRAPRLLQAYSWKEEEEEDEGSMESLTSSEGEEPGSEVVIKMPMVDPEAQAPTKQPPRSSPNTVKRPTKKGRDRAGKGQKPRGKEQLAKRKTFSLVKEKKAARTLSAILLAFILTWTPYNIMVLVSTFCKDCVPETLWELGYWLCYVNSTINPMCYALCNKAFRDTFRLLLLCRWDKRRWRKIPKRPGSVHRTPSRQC
Put plainly: biochemical. It is filed as binding.

For data set [4], the target named is T3, human recombinant muscarinic receptor M-4 (Homo sapiens, UniProt P08173).
T3 construct: expressed in transfected cells; host or cells: SF9 insect cells (membranes)
T3 sequence (P08173 1-479): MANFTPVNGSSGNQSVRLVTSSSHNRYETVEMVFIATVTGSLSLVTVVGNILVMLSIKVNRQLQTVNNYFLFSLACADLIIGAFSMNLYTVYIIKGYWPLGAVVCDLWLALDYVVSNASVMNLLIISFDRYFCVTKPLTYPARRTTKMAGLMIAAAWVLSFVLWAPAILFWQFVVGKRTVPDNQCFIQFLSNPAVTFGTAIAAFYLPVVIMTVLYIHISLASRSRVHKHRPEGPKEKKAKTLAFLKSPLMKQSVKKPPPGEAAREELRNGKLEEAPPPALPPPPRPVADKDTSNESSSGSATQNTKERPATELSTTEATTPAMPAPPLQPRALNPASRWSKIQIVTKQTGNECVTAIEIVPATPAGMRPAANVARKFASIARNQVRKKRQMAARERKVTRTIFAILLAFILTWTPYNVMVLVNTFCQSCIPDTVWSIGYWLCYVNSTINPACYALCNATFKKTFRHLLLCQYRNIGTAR
It is filed as binding.

In data set [5] the target is T4, human recombinant muscarinic receptor M-3 (Homo sapiens, UniProt P20309).
T4 construct: expressed in transfected cells; host or cells: SF9 insect cells (membranes)
Nature of the data set: biochemical. It is filed as binding.

For data set [6], the target named is T1, CYP 2D6. Nature of the data set: biochemical.

Consider five compounds from patent publication US6974820B2, “Methods for treating urinary incontinence and other disorders using trospium” (Bridge Pharma, Inc., priority 2002, dated 2005).

Read-outs that look alike come from different tables or passages of the source.

T1 sequence (P10635 whole entry, the tested form may be a part): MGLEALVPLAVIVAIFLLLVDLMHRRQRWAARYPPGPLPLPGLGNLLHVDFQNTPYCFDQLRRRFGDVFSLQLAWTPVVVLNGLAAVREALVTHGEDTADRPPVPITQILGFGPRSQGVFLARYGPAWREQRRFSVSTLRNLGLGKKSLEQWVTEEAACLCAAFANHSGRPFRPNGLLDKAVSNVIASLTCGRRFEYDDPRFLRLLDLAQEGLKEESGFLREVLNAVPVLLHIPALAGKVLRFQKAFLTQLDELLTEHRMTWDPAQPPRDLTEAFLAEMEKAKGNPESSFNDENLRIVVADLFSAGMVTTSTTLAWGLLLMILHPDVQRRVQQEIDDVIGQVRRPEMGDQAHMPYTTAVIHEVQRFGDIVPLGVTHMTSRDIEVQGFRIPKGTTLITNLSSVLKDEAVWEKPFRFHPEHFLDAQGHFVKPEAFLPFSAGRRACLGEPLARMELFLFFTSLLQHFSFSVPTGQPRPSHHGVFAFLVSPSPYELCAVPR
T4 sequence (P20309 whole entry): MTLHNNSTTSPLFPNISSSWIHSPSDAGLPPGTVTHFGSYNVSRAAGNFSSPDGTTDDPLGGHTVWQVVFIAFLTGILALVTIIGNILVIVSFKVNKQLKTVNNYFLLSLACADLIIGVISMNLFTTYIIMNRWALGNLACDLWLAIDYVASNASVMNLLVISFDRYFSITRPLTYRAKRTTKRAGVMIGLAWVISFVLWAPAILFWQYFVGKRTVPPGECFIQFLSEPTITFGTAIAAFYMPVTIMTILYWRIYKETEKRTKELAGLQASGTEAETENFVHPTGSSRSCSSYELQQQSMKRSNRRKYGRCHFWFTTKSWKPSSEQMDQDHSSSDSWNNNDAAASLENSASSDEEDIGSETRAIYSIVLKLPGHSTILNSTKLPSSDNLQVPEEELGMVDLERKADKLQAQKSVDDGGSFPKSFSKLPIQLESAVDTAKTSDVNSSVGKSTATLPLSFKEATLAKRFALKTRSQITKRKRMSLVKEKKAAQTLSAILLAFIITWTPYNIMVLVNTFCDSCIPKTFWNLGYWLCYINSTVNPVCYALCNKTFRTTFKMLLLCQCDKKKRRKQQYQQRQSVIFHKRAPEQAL

For the compound `CCN(CC)CC#CCOC(=O)C(O)(c1ccccc1)C1CCCCC1` (stereo not shown) [Oxybutynin], the “Inhibition of CYP 2D6 isoenzyme metabolism (in words)” value in data set [1] is “potently inhibit”. Also, in data set [2], the “Prolongation of the QTc interval of the ECG (in words)” value is reported as “statistically significant prolongation” and the “ΔQTc (%)” value is reported as “+12 ± 2%”.
As to `CC(CC(c1ccccc1)c1ccccc1)NC(C)(C)C` (stereo not shown) [Terodiline], in data set [2], the “Prolongation of the QTc interval of the ECG (in words)” value is recorded as “statistically significant prolongation” and the “ΔQTc (%)” value was “+11 ± 1%”.
As usually defined, the Ki is the dissociation constant of the complex between target and ligand, obtained from inhibition or displacement. Take `Cc1ccc(O)c([C@H](CCN(C(C)C)C(C)C)c2ccccc2)c1` [Tolterodine]: the Ki is 1.58 nM in data set [3] and 20 nM in data set [4] (membranes of SF9 cells expressing human recombinant receptor, read-out: Affinity (negative logarithm of the dissociation constant Ki) M-4 (converted)). The “Prolongation of the QTc interval of the ECG (in words)” value in data set [2] is recorded as “statistically significant prolongation”. The “ΔQTc (%)” value in data set [2] is listed as “+16 ± 1%”.
One may read the IC50 as the concentration that gives 50% inhibition. Read a low IC50 as higher potency. With `O=C(O[C@H]1C[C@H]2CC[C@@H](C1)[N+]21CCCC1)C(O)(c1ccccc1)c1ccccc1` [Trospium, 3α-hydroxy-spiro[1αH,5αH-nortropane-8,1′-pyrrolidinium] chloride benzilate], the Ki was 0.794 nM in data set [3], 0.501 nM in data set [5] and 1 nM in data set [4]. This compound also registered an IC50 in data set [6] of approximately 20000 nM. Further, in data set [2], the “Prolongation of the QTc interval of the ECG (in words)” value was “no effects”. Moreover, the “ΔQTc (%)” value in data set [2] is on record as −2 ± 1%.
Turning to `CC(C)(C)c1ccc(C(O)CCCN2CCC(C(O)(c3ccccc3)c3ccccc3)CC2)cc1` (stereo not shown) [terfenadine], the “Prolongation of the QTc interval of the ECG (in words)” value in data set [2] was “caused QT-prolongation”.
